Data taken from US4024224A, “14-Aminodaunomycins, their preparation and use” (priority 1974, dated 1977).
In brackets after ≈: the same amount, converted by molar mass. Where two headings read alike, the source gives them in different places.

Assays:
[1] = tested on: Moloney Sarcoma Virus (MSV); assay: Inhibition of MSV-M foci formation in mouse embryo fibroblasts; assay type: cell-based; conditions: Fibroblast, 120 h, 3 days treatment
Experimental: (§1) Mouse embryo fibroblasts (MEF) were plated on 35 mm. Falcon plastic dishes and infected 24 hours later with Moloney Sarcoma Virus (MSV) in the presence of DEAE-dextran (25 μg./ml.). The samples were then treated for 3 days with different concentrations of the compounds of the invention. The number of foci of transformed cells was microscopically determined 5 days after the infection. Uninfected MEF were similarly treated and at the end of the experiment, the cells were counted in an haemocytometer. In all the experiments, the cells were incubated in a 5% CO2 incubator at 37° C.
(§2) For use in these tests the compounds were dissolved in distilled water or in 5% ethyl alcohol in distilled water and then diluted in culture medium.
The results of these tests are reported in Table I in terms of ID50 values (Inhibiting Dose 50%), calculated on dose-effects lines.

Mouse Embryo Fibroblasts = assay: Proliferation of uninfected mouse embryo fibroblasts (MEF); assay type: cell-based; conditions: Mus musculus, Fibroblast, 72 h, uninfected MEF, 3 days treatment, read-out: MEF No. of cells
Experimental: as §1, §2

[2] = as above; assay type: cell-based; conditions: mouse, mouse embryo fibroblasts; calculated on dose-effects lines; uninfected MEF, 3 days treatment; read-out: MEF proliferation ID 50 (Inhibiting Dose 50%)
Experimental: as §1, §2

Solid Sarcoma 180 = assay: Antitumor activity and toxicity on solid Sarcoma 180 in CD 1 mice; assay type: in vivo; conditions: for Tumor Volume T/C %: 11th day; for Toxic Deaths: deaths/total
Experimental: (§3) The toxicity of the test compounds was evaluated by macroscopic autoptic examination mainly in terms of reduction in spleen size. The comparison of the effectiveness of the test compounds is based on the maximum increase in median survival time, as compared to untreated controls, over the dose range used. The number of Long Term Survivors (LTS) refers to tumor-free mice at the end of the experiment (60 days). Solid Sarcoma 180 was implanted subcutaneously by trocar in the flank of CD 1 mice according to standard methods. The mice were treated i.v. for 5 consecutive days, starting 1 day after the tumor implant. On the 11th day the tumor volume was measured by means of a caliper and evaluated according to the formula (a^2 × b)/2, a and b being the minimum and the maximum diameters respectively.

ascites Sarcoma 180 = assay: Antitumor activity and toxicity on ascites Sarcoma 180 in CD 1 mice; assay type: in vivo; conditions: for % LTS: 60 days; for LTS (Long Term Survivors after 60 days): survivors/total; for Toxic Deaths: deaths/total
Experimental: (§4) The antitumor activity of the compounds of the invention was tested on ascites Sarcoma 180.
(§5) Three month old CD 1 mice were used. Sarcoma 180 ascites cells were inoculated intraperitoneally (10^6 cells/mouse). For use in these tests, the compounds were dissolved in distilled water or in 5% ethyl alcohol in distilled water, then diluted with Ringers solution and administered i.p. 1 day after the tumor implant (10 ml./kg. of body weight).
as §3

[3] = as above; assay type: in vivo; conditions: mouse, in vivo, ip, read-out: % Toxic Deaths
Experimental: as §4, §5, §3

[4] = 12.5 mg./kg. i.v. for 5 consecutive days
[5] = 25 mg./kg. i.v. for 5 consecutive days
[6] = 50 mg./kg. i.v. for 5 consecutive days
[7] = 0.2 mg./kg. i.p. 1 day after tumor implant
[8] = 1 mg./kg. i.p. 1 day after tumor implant
[9] = 5 mg./kg. i.p. 1 day after tumor implant
[10] = 12.5 mg./kg. i.p. 1 day after tumor implant
[11] = 25 mg./kg. i.p. 1 day after tumor implant
[12] = 50 mg./kg. i.p. 1 day after tumor implant
[13] = 75 mg./kg. i.p. 1 day after tumor implant
[14] = 100 mg./kg. i.p. 1 day after tumor implant
[15] = 200 mg./kg. i.p. 1 day after tumor implant

Compound `COc1cccc2c1C(=O)c1c(O)c3c(c(O)c1C2=O)C[C@@](O)(C(=O)CN(CCO)CCO)C[C@@H]3O[C@H]1C[C@H](N)[C@H](O)[C@H](C)O1` [14-diethanolaminodaunomycin] has an IC50 ([1]; calculated on dose-effects lines, read-out: MSV-M foci ID 50 (Inhibiting Dose 50%)) of 0.052 µg/mL (≈ 0.0825 µM), an activity at 0.0062 µg/mL ([1]; dose 0.0062 μg/ml, foci counted 5 days after infection, read-out: MSV-M No. of foci) of 75% and an activity at 0.025 µg/mL ([1]; dose 0.0250 μg/ml, foci counted 5 days after infection, read-out: MSV-M No. of foci) of 73%. The activity at 0.1 µg/mL ([1]; dose 0.1 μg/ml, foci counted 5 days after infection, read-out: MSV-M No. of foci) was 21%, the activity at 0.4 µg/mL ([1]; dose 0.4 μg/ml, foci counted 5 days after infection, read-out: MSV-M No. of foci) was 0% and the activity at 0.0062 µg/mL (Mouse Embryo Fibroblasts; dose 0.0062 μg/ml) was 100%. The activity at 0.025 µg/mL (Mouse Embryo Fibroblasts; dose 0.0250 μg/ml) was 95%, the activity at 0.1 µg/mL (Mouse Embryo Fibroblasts; dose 0.1 μg/ml) was 56% and the activity at 0.4 µg/mL (Mouse Embryo Fibroblasts; dose 0.4 μg/ml) was 25%. The IC50 at 72 h [2] was 0.13 µg/mL (≈ 0.206 µM), the “Tumor Volume T/C %” value (Solid Sarcoma 180; [4]) was 82% and the “Toxic Deaths” value (Solid Sarcoma 180; [4]) was 1/5. For the same compound, the “Tumor Volume T/C %” value (Solid Sarcoma 180; [5]) was 66%, the “Toxic Deaths” value (Solid Sarcoma 180; [5]) was 1/5 and the “Tumor Volume T/C %” value (Solid Sarcoma 180; [6]) was 44%. The “Toxic Deaths” value (Solid Sarcoma 180; [6]) was 0/5, the “inhibition of tumor growth on solid Sarcoma 180” value (Solid Sarcoma 180; at non-toxic doses) was “marked inhibition of tumor growth, at non-toxic doses” and the “T/C (median survival time, % over untreated controls)” value (ascites Sarcoma 180; [7]) was 106%. For the same compound, the “% LTS” value (ascites Sarcoma 180; [7]) was 0%, the “LTS (Long Term Survivors after 60 days)” value (ascites Sarcoma 180; [7]) was 0/10 and the “Toxic Deaths” value (ascites Sarcoma 180; 0.2 mg./kg. i.p.) was 0/10. For the same compound, the “T/C (median survival time, % over untreated controls)” value (ascites Sarcoma 180; [8]) was 103%, the “% LTS” value (ascites Sarcoma 180; [8]) was 0% and the “LTS (Long Term Survivors after 60 days)” value (ascites Sarcoma 180; [8]) was 0/10. For the same compound, the “Toxic Deaths” value (ascites Sarcoma 180; 1 mg./kg. i.p.) was 0/10, the “T/C (median survival time, % over untreated controls)” value (ascites Sarcoma 180; [9]) was 124% and the “% LTS” value (ascites Sarcoma 180; [9]) was 0%. For the same compound, the “LTS (Long Term Survivors after 60 days)” value (ascites Sarcoma 180; [9]) was 0/10, the “Toxic Deaths” value (ascites Sarcoma 180; 5 mg./kg. i.p.) was 0/10 and the “T/C (median survival time, % over untreated controls)” value (ascites Sarcoma 180; [10]) was 181%. The “% LTS” value (ascites Sarcoma 180; [10]) was 0%, the “LTS (Long Term Survivors after 60 days)” value (ascites Sarcoma 180; [10]) was 0/10 and the “Toxic Deaths” value (ascites Sarcoma 180; 12.5 mg./kg. i.p.) was 0/10. For the same compound, the “T/C (median survival time, % over untreated controls)” value (ascites Sarcoma 180; [11]) was 187%, the “% LTS” value (ascites Sarcoma 180; [11]) was 20% and the “LTS (Long Term Survivors after 60 days)” value (ascites Sarcoma 180; [11]) was 4/20. For the same compound, the “Toxic Deaths” value (ascites Sarcoma 180; 25 mg./kg. i.p.) was 0/20, the “T/C (median survival time, % over untreated controls)” value (ascites Sarcoma 180; [12]) was 175% and the “% LTS” value (ascites Sarcoma 180; [12]) was 23%. For the same compound, the “LTS (Long Term Survivors after 60 days)” value (ascites Sarcoma 180; [12]) was 4/17, the “Toxic Deaths” value (ascites Sarcoma 180; 50 mg./kg. i.p.) was 0/17 and the “T/C (median survival time, % over untreated controls)” value (ascites Sarcoma 180; [13]) was 170%. For the same compound, the “% LTS” value (ascites Sarcoma 180; [13]) was 0%, the “LTS (Long Term Survivors after 60 days)” value (ascites Sarcoma 180; [13]) was 0/10 and the “Toxic Deaths” value (ascites Sarcoma 180; 75 mg./kg. i.p.) was 1/10. The “T/C (median survival time, % over untreated controls)” value (ascites Sarcoma 180; [14]) was 83%, the “% LTS” value (ascites Sarcoma 180; [14]) was 0% and the “LTS (Long Term Survivors after 60 days)” value (ascites Sarcoma 180; [14]) was 0/7. For the same compound, the “Toxic Deaths” value (ascites Sarcoma 180; 100 mg./kg. i.p.) was 3/7, the “T/C (median survival time, % over untreated controls)” value (ascites Sarcoma 180; [15]) was 25% and the “% LTS” value (ascites Sarcoma 180; [15]) was 0%. The “LTS (Long Term Survivors after 60 days)” value (ascites Sarcoma 180; [15]) was 0/7, the “Toxic Deaths” value (ascites Sarcoma 180; 200 mg./kg. i.p.) was 7/7 and the mortality ([3]; 0.2 mg./kg. i.p.) was 0%. The mortality ([3]; 1 mg./kg. i.p.) was 0%, the mortality ([3]; 5 mg./kg. i.p.) was 0% and the mortality ([3]; 12.5 mg./kg. i.p.) was 0%. The mortality ([3]; 25 mg./kg. i.p.) was 0%, the mortality ([3]; 50 mg./kg. i.p.) was 0% and the mortality ([3]; 75 mg./kg. i.p.) was 10%. The mortality ([3]; 100 mg./kg. i.p.) was 42% and the mortality ([3]; 200 mg./kg. i.p.) was 100%.
